Data as given in US8846761B2, “Method for treating pancreatitis” (Michigan Life Therapeutics, LLC, priority 2010, dated 2014).
Read-outs that look alike come from different tables or passages of the source.

How the values were obtained:
[1] = target: T1, CYP3A4 (Homo sapiens, UniProt P08684); conditions: cited from earlier work
[2] = test system: patient with triglyceride level of 1030 mg/dl; assay: Example 5: patient with triglyceride level of 1030 mg/dl treated with gemcabene; assay type: in vivo, human; conditions: 300 mg once per day plus low fat diet, 12-week follow-up, initial 1030 mg/dl
Experimental: A patient, as part of a routine annual examination, has blood tests which reveal that the patient has an LDL-C level of 200 mg/dl and a triglyceride level of 1030 mg/dl. This high triglyceride level places them at high risk for developing pancreatitis. According to the […] guidelines, the patient's treatment is initially targeted to address the high triglyceride level. The patient is administered gemcabene at a dose of 300 mg once per day and is placed on a low fat diet.

[3] = target: T1, CYP3A4; conditions: simvastatin (a CYP3A4 substrate); cited from earlier work
[4] = test system: patients having triglyceride levels ≧200 mg/dL; conditions: data reported in Bays et al., cited from earlier work
[5] = test system: patients having TG levels >500 mg/dL; assay: Randomized, double-blind, placebo-controlled study of gemcabene, subset of patients entering with TG >500 mg/dL; assay type: in vivo, human; conditions: for ApoA-I average % increase / ApoB average % decrease / ApoC-III average % decrease / HDL-C average % increase / VLDL-C average % decrease / hs-CRP average % decrease / Triglycerides average % decrease: patients TG >500 mg/dL; for Triglycerides average % decrease: once daily for 12 weeks, serum, change from baseline
Experimental: A randomized, double-blind, placebo-controlled study was conducted to evaluate the efficacy and tolerability of gemcabene in patients with HDL cholesterol levels <35 mg/dL. Patients were stratified based on whether mean serum triglyceride (TG) levels were <200 mg/dL or ≧200 mg/dL. Within each TG stratum, patients were randomized to receive either 150, 300, 600 or 900 mg of gemcabene, or placebo, once daily for 12 weeks.
Patients were evaluated for percent change from baseline levels of serum HDL cholesterol, serum LDL cholesterol, TG, apolipoproteins A-I, A-II, B, C-III, and E, hs CRP and non-HDL cholesterol levels. Blood samples were measured at screening, randomization and at −8, −4, −2 weeks, baseline, and 2, 4, and 12 weeks after the start of study medication. In addition, HDL-C, LDL-C and TG levels were measured at 2 and 4 weeks before starting study medication. Bays H. E. et al. Am J Cardiol (2003) vol.
When the data were examined for the subset of patients entering the study having TG levels greater than 500 mg/dL, an unexpectedly large decrease in TG levels for those patients treated with gemcabene was seen as compared with the broader group of patients having triglyceride levels ≧200 mg/dL. Twenty-seven patients having TG levels >500 mg/dL were evaluated in the study.
FIGS. 2a-e, 3a-e, 4a-e, 5a-e, 6a-e, 7a-e and 8a-e are graphs illustrating the serum levels of TG, HDL-C, ApoA-I, ApoC-III, VLDL-C, hs CRP, and ApoB for individual patients at baseline and at 12 weeks post treatment with doses of 150, 300, 600, and 900 mg/day of gemcabene, or placebo.
Tables 1-7 provide the data expressed as average percent and mean percent decrease or increase, as appropriate, for each of these parameters at each of the doses tested.

T1 sequence (P08684 whole entry): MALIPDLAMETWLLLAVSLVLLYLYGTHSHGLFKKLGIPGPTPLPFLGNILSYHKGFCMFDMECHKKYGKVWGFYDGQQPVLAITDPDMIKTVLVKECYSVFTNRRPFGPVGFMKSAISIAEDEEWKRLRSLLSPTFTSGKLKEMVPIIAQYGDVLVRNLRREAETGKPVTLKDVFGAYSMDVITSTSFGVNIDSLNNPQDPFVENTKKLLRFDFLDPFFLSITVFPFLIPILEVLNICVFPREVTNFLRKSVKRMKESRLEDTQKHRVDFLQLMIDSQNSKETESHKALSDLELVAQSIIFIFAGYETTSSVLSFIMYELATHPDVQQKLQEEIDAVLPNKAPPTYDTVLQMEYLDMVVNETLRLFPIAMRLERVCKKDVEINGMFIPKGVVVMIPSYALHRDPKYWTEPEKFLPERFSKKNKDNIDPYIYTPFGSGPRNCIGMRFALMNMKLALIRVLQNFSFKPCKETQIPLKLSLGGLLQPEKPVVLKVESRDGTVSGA

## CC(C)(CCCCOCCCCC(C)(C)C(=O)O)C(=O)O [Gemcabene, 6,6′-oxybis-(2,2′-dimethylhexanoic acid)]
[1]
  inhibition of CYP3A4: low level of inhibition
[2]
  triglyceride level at follow-up: 363 mg/dL
[3]
  effect in drug-drug interaction study with simvastatin: no clinically relevant effect
[4]; 150 mg dose
  reduction in triglyceride levels: 26.6%
[4]; 300 mg dose
  reduction in triglyceride levels: 38.9%
[5]; 150 mg/day, 12 weeks
  ApoA-I average % increase: 9.27%
  ApoB average % decrease: −16.15%
  ApoC-III average % decrease: 36.95%
  HDL-C average % increase: 32.59%
  VLDL-C average % decrease: 48.50%
  hs-CRP average % decrease: −4.02%
[5]; 150 mg/day
  Triglycerides average % decrease: 52.09%
[5]; 150 mg/day, listed as gemcabene
  Triglycerides average % decrease: 52%
[5]; 300 mg/day, 12 weeks
  ApoA-I average % increase: −6.17%
  ApoB average % decrease: 1.25%
  ApoC-III average % decrease: 49.41%
  HDL-C average % increase: 11.69%
  VLDL-C average % decrease: 51.86%
  hs-CRP average % decrease: −429.19%
[5]; 300 mg/day
  Triglycerides average % decrease: 61.18%
[5]; 300 mg/day, listed as gemcabene
  Triglycerides average % decrease: 61%
[5]; 600 mg/day, 12 weeks
  ApoA-I average % increase: −3.31%
  ApoB average % decrease: −3.70%
  ApoC-III average % decrease: 30.89%
  HDL-C average % increase: −4.02%
  VLDL-C average % decrease: 28.73%
  hs-CRP average % decrease: 33.50%
[5]; 600 mg/day
  Triglycerides average % decrease: 36.44%
[5]; 900 mg/day, 12 weeks
  ApoA-I average % increase: 0.47%
  ApoB average % decrease: 2.26%
  ApoC-III average % decrease: 20.36%
  HDL-C average % increase: 1.03%
  VLDL-C average % decrease: 17.10%
  hs-CRP average % decrease: 66.64%
[5]; 900 mg/day
  Triglycerides average % decrease: 0.90%
[5]; one patient (FIG. 1), 150 mg/day, 12 weeks
  increase in HDL-C levels: 27%
[5]; one patient (FIG. 1), 150 mg/day, 12 weeks post-treatment, TG 550 mg/dL at initiation
  serum triglyceride level after treatment: 210 mg/dL
[5]; one patient (FIG. 1), 150 mg/day, 12 weeks, TG 550 mg/dL at initiation
  fall in triglyceride level: 62%
